Values joined by “and” are separate entries in the source; they are usually repeats but may differ in a detail not shown here. Identical values can stand only once. Like-named read-outs stand apart in the source and are kept apart here.
How the values were obtained:
[1] = dog, in vivo
[2] = male, rat, in vivo, im
Procedure: (§1) Several formulations were considered in the initial rat study.
(§2) The above formulations were administered to either rats or dogs as an IV injection or as IM injections to the hind leg(s) of each animal.

[3] = dogs (N=3); Group 2: IM 77 mg/kg abiraterone isocaproate, 158 mg/ml in 90% corn oil/10% benzyl alcohol; plasma analyte = label; mean
in vivo [4] = conditions: dog, plasma, intramuscular
Source text: (§3) Weighting was included, dependent on the pattern of residuals (residual Y versus predicted concentration or time) and precision of the estimated parameters. The appropriate model was selected based on: (i) visual inspection of the model fit to the data (ii) the lowest value of Akaike Information Criterion (AIC) and (iii) precision of the estimated parameters (CV). Systemic clearance (CL) and apparent volume of distribution (Vss) were derived from the exponential functions.
(§4) Deconvolution: The rate and extent of input from an intramuscular administration was simulated by deconvolution using WinNonlin Phoenix Version 8.2. Deconvolution is based on linear systems analysis and is defined by the convolution integral: G(t)=R(t)*H(t). G(t) is the measured plasma concentration profile after intramuscular dosing, H(t) is represented by the exponential function described in Section 3.2 and R(t), the rate of input from the IM depot over time, is derived by deconvolution of the above expression. The slope of the input rate versus time generates the input rate constant (Koi). Integration of input rate versus time generates the cumulative input function and an estimate of absolute bioavailability.

[5] = Plasma PK in rats after IM injection of abiraterone or abiraterone acetate formulations (Example 5A); conditions: male, rat, group mean
Procedure: as §1, §2

[6] = PK modelling and deconvolution of abiraterone plasma profiles, monkeys (Example 7D)
Source text: as §3, §4

in vivo [7] = conditions: male, beagle, dog, plasma; for AUC(0-inf): dogs
[8] = Allometric scaling and prediction of plasma profile of abiraterone in man (Example 7D)
Source text: (§5) CL and Vss in man were predicted from CL and Vss in animals by an allometric approach. Vss=a·W^x where a is the intercept, W is bodyweight and x is the allometric exponent; then, log Vss=x·log W+log a (derived from a log-log plot of body weight versus Vss in the 3 species). […] The rate and extent of input was derived by deconvolution.

in vivo [9] = conditions: rat, plasma, intramuscular, 90 mg/kg
Source text: as §3, §4

in vivo [10] = conditions: Beagle, dog; for half-life: iv
Procedure: Nominal dose values and sampling times were used for calculations. For the purpose of PK calculations, any concentration reported as “BLQ” was set equal to zero.
Cmax and the corresponding Tmax values were determined by direct assessment of the concentration versus time data. All AUC calculations were performed using the linear trapezoidal rule.
As data permitted, the terminal elimination rate constant (lambda z, λz) was calculated.
To optimize the reliability of the identified terminal phase (λz), where possible, the data points used to define the λz were manually selected.
The AUCINF value was calculated as: AUClast+(Clast/λz). CL/F was calculated as: Dose per dosing interval/(AUCINF) and Vz/F was calculated as: Dose per dosing interval/(AUCINF*λz). Terminal t1/2 was calculated as: ln(2)/λz.
Mean plasma concentration versus time data are presented with standard deviation (SD) and percent coefficient of variation (CV %) and reported to three significant figures. PK parameter values are presented with mean, SD, and CV %. Individual Tmax values were reported to two significant figures, while all other values and descriptive statistics are reported to three significant figures.

in vivo [11] = conditions: monkey, plasma, intramuscular, 90 mg/kg
Source text: as §3, §4

[12] = PK modelling and deconvolution of abiraterone plasma profiles, rats (Example 7D)
Source text: as §3, §4

[13] = human
Source text: as §5

[14] = PK modelling and deconvolution of abiraterone plasma profiles, dogs (Example 7D)
Source text: as §3, §4

in vivo [15] = conditions: male, rat, plasma
in vivo [16] = conditions: male, cynomolgus monkey, plasma
[17] = PK of single IM abiraterone decanoate (and oral abiraterone acetate) in chemically castrated monkeys (Example 10); conditions: abiraterone in plasma
[18] = Group 3: IM abiraterone suspension in castor oil (62.5 mg/ml)
[19] = Group 4: IM abiraterone suspension, sodium phosphate buffer, 0.1% Tween (62.5 mg/ml)
[20] = single IM 10 mg/kg, Geometric Mean (N=3)
[21] = single IM 10 mg/kg, Median (N=3)
[22] = single IM 10 mg/kg, individual animals
[23] = single IM 30 mg/kg, Geometric Mean (N=3)
[24] = single IM 30 mg/kg, Median (N=3)
[25] = single IM 30 mg/kg, individual animals
[26] = single IM 100 mg/kg, Mean (N=3)
[27] = single IM 100 mg/kg, Median (N=3)
[28] = single IM 100 mg/kg, individual animals

Q: Which results are given for `CC(=O)O[C@H]1CC[C@@]2(C)C(=CC[C@@H]3[C@@H]2CC[C@]2(C)C(c4cccnc4)=CC[C@@H]32)C1` [Abiraterone acetate, (3β)-17-(3-Pyridyl)androsta-5, acetate]?
A: injection site tolerability [1]: irritating to the dogs at the injection site; AUCINF ([1]; iv, 10 mg/kg): 5990 ng·h/mL; AUCINF/Dose ([1]; iv, 10 mg/kg): 599; AUClast ([1]; iv, 10 mg/kg): 5920 ng·h/mL; AUClast/Dose ([1]; iv, 10 mg/kg): 592; time out to which blood levels were measurable ([1]; male): 504 h; Tmax [2]: 8.00 h; AUClast ([2]; 35 mg/kg): 934 ng·h/mL; Cmax ([2]; 35 mg/kg): 21.6 ng/mL; Tmax ([2]; 35 mg/kg): 39.2 h

Q: Which Cmax [3] does the source give for `CC(C)CCC(=O)O[C@H]1CC[C@@]2(C)C(=CC[C@@H]3[C@@H]2CC[C@]2(C)C(c4cccnc4)=CC[C@@H]32)C1` [Abiraterone Isocaproate, Abiraterone isocaproate] here?
A: 106 ng/mL

Q: With `C[C@]12CC[C@H](O)CC1=CC[C@@H]1[C@@H]2CC[C@]2(C)C(c3cccnc3)=CC[C@@H]12` [Abiraterone, (3β)-17-(pyridin-3-yl)androsta-5,16-dien-3-ol] as the compound, how does the half-life (in vivo [4]) read?
A: 319 h

Q: What about the Cmax [5, 18] of the same compound?
A: 13.3 ng/mL

Q: What about the Cmax [5, 19] of the same compound?
A: 1.43 ng/mL

Q: And the Tmax [5, 18]?
A: 2.6 h

Q: What about the Tmax [5, 19] of the same compound?
A: 1.67 h

Q: What about the F ([6]; Monkeys, IM bioavailability of abiraterone from abiraterone decanoate, deconvolution) of the same compound?
A: 14%

Q: What about the Vd ([6]; monkey, plasma, iv, […]) of the same compound?
A: 5.73 L/kg

Q: And the clearance ([6]; monkey, plasma, iv, […])?
A: 43 mL/min/kg

Q: What about the AUC(0-inf) (in vivo [7]; im, 60 mg/kg, mean abiraterone AUCINF after IM, corrected for dose and time units, 60 mg/kg IM administration (abiraterone decanoate)) of the same compound?
A: 70.4 ng·h/mL

Q: What about the AUC(0-inf) (in vivo [7]; im, 60 mg/kg, mean abiraterone AUCINF after IM, corrected for dose and time units, 60 mg/kg IM administration of abiraterone isocaproate) of the same compound?
A: 114 ng·h/mL

Q: What about the bioavailability (in vivo [7]; im, 77 mg/kg) of the same compound?
A: 87%

Q: And the half-life (in vivo [7]; im, 77 mg/kg, t1/2, dogs (N=3), Group 2: IM 77 mg/kg abiraterone isocaproate, 158 mg/ml in 90% corn oil/10% benzyl alcohol, plasma analyte = label, mean)?
A: 223 h

Q: And the bioavailability (in vivo [7]; im, 87 mg/kg)?
A: 42%

Q: And the AUC(0-inf) (in vivo [7]; iv, 0.78 mg/kg, mean abiraterone AUCINF after IV, corrected for dose, IV abiraterone isocaproate (0.78 mg/kg as abiraterone))?
A: 131 ng·h/mL

Q: What about the “Vss, predicted in man” value ([8]; allometric scaling from rats, dogs and monkeys) of the same compound?
A: 437 L

Q: What about the “K01, predicted in man” value ([8]; from deconvolution of animal IM/IV data) of the same compound?
A: 0.00213 h⁻¹

Q: What about the “F, predicted in man” value ([8]; value of dogs used) of the same compound?
A: 56%

Q: And the half-life (in vivo [9])?
A: 325 h

Q: And the bioavailability (in vivo [10]; im, absolute bioavailability for abiraterone)?
A: 72%

Q: What about the AUC(0-inf) (in vivo [10]; im, mean abiraterone AUCINF after IM, corrected for dose and time units) of the same compound?
A: 104 ng·h/mL

Q: And the half-life (in vivo [10]; 1 mg/kg, mean t1/2)?
A: 2.1 h

Q: And the half-life (in vivo [11])?
A: 325 h

Q: And the F ([12]; Rats, IM bioavailability of abiraterone from abiraterone decanoate, deconvolution)?
A: 19%

Q: What about the Vd ([12]; rat, plasma, iv, […]) of the same compound?
A: 22.3 L/kg

Q: What about the clearance ([12]; rat, plasma, iv, […]) of the same compound?
A: 190 mL/min/kg

Q: What about the “t1/2 (absorption half-life), predicted in man” value [13] of the same compound?
A: 325 h

Q: And the F ([14]; Dogs, IM bioavailability of abiraterone from abiraterone decanoate, deconvolution)?
A: 56%

Q: What about the Vd ([14]; dog, plasma, iv, […]) of the same compound?
A: 14.2 L/kg

Q: And the clearance ([14]; dog, plasma, iv, […])?
A: 108 mL/min/kg

Q: What about the AUCINF [3] of the same compound?
A: 275 ng·days/mL

Q: And the AUClast [3]?
A: 266 ng·days/mL

Q: And the t1/2 [3]?
A: 223 h

Q: What does the source list for `CCCCCCCCCC(=O)O[C@H]1CC[C@@]2(C)C(=CC[C@@H]3[C@@H]2CC[C@]2(C)C(c4cccnc4)=CC[C@@H]32)C1` [Abiraterone Decanoate, Abiraterone decanoate]?
A: half-life (in vivo [15]; im, 90 mg/kg): 792 h; half-life (in vivo [15]; iv, […]): 3.2 h; CL/F (in vivo [7]; im, 87 mg/kg): 207 mL/min/kg; Vd/F (in vivo [7]; im, 87 mg/kg): 2850 L/kg; half-life (in vivo [7]; im, 87 mg/kg): 161 h; half-life (in vivo [16]; im, 90 mg/kg): 240 h; half-life (in vivo [16]; iv, […]): 2.27 h; Tmax (in vivo [10]; im, mean decanoate Tmax, range between the two IM formulations): 2.64 to 6.24 h; half-life (in vivo [10]; […]): 0.86 h; AUC0-t [17, 20]: 196 ng·days/mL; AUC0-∞ [17, 20]: 209 ng·days/mL; AUC0-t ([17]; single IM 10 mg/kg, Max (N=3)): 225 ng·days/mL; AUC0-∞ ([17]; single IM 10 mg/kg, Max (N=3)): 236 ng·days/mL; AUC0-t ([17]; single IM 10 mg/kg, Mean (N=3)): 198 ng·days/mL; AUC0-∞ ([17]; single IM 10 mg/kg, Mean (N=3)): 212 ng·days/mL; AUC0-t [17, 21]: 212 ng·days/mL; AUC0-∞ [17, 21]: 235 ng·days/mL; AUC0-t ([17]; single IM 10 mg/kg, Min (N=3)): 157 ng·days/mL; AUC0-∞ ([17]; single IM 10 mg/kg, Min (N=3)): 166 ng·days/mL; AUC0-t [17, 22]: 225 ng·days/mL and 157 ng·days/mL and 212 ng·days/mL; AUC0-∞ [17, 22]: 235 ng·days/mL and 166 ng·days/mL and 236 ng·days/mL; AUC0-t [17, 23]: 330 ng·days/mL; AUC0-∞ [17, 23]: 347 ng·days/mL; AUC0-t ([17]; single IM 30 mg/kg, Max (N=3)): 449 ng·days/mL; AUC0-∞ ([17]; single IM 30 mg/kg, Max (N=3)): 492 ng·days/mL; AUC0-t ([17]; single IM 30 mg/kg, Mean (N=3)): 338 ng·days/mL; AUC0-∞ ([17]; single IM 30 mg/kg, Mean (N=3)): 358 ng·days/mL; AUC0-t [17, 24]: 285 ng·days/mL; AUC0-∞ [17, 24]: 293 ng·days/mL; AUC0-t ([17]; single IM 30 mg/kg, Min (N=3)): 281 ng·days/mL; AUC0-∞ ([17]; single IM 30 mg/kg, Min (N=3)): 290 ng·days/mL; AUC0-t [17, 25]: 281 ng·days/mL and 285 ng·days/mL and 449 ng·days/mL; AUC0-∞ [17, 25]: 293 ng·days/mL and 290 ng·days/mL and 492 ng·days/mL; AUC0-t ([17]; single IM 100 mg/kg, Max (N=3)): 1760 ng·days/mL; AUC0-∞ ([17]; single IM 100 mg/kg, Max (N=3)): 1770 ng·days/mL; AUC0-t [17, 26]: 1410 ng·days/mL; AUC0-∞ [17, 26]: 1430 ng·days/mL; AUC0-t [17, 27]: 1270 ng·days/mL; AUC0-∞ [17, 27]: 1330 ng·days/mL; AUC0-t ([17]; single IM 100 mg/kg, Min (N=3)): 1200 ng·days/mL; AUC0-∞ ([17]; single IM 100 mg/kg, Min (N=3)): 1200 ng·days/mL; AUC0-t [17, 28]: 1270 ng·days/mL and 1200 ng·days/mL and 1760 ng·days/mL; AUC0-∞ [17, 28]: 1330 ng·days/mL and 1200 ng·days/mL and 1770 ng·days/mL

Source: patent US20240050447A1 (Propella Therapeutics, Inc., priority 2020, published 2024)
